Measurements reported in patent US10508120B2, “TYK2 inhibitors and uses thereof” (Nimbus Lakshmi, Inc., priority 2017, dated 2019).
Read-outs that look alike come from different tables or passages of the source.

Tests used:
JAK2 kinase domain (JH1) = JAK2 kinase domain (JH1) (Homo sapiens (Human), UniProt O60674); experiment: JAK2 Radioactive Kinase Assay; type: biochemical; details: for inhibition at 10 µM: read-out: JAK2 JH1% Inhibition @ 10 μM
In short: (§1)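 Compounds were tested at a single concentration of 10 μM in a radiometric kinase format against each isolated kinase domain. Activity is reported as percent inhibition at that concentration.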

Tyk2 kinase domain (DH1) = Tyk2 kinase domain (DH1) (Homo sapiens (Human), UniProt P29597); experiment: Tyk2 Radioactive Kinase Assay; type: biochemical; details: for inhibition at 10 µM: read-out: Tyk2 JH1% Inhibition @ 10 μM
In short: as §1

[1] = molecular target: human TYK2 (JH2domain-pseudokinase) (Homo sapiens (Human), UniProt P29597); experiment: TYK2 JH2 Domain Binding Assay (KINOMEscan)
In short: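 Competition binding of an NFkB-DBD fusion of human TYK2 JH2 (G556–D888), expressed in HEK293 and used as crude extract at <0.1 nM, against immobilized ligand beads; 1 h at room temperature in PBS/Tween/DTT/BSA buffer, 0.9% DMSO.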

Chain of human TYK2 (JH2domain-pseudokinase) (P29597 556-888): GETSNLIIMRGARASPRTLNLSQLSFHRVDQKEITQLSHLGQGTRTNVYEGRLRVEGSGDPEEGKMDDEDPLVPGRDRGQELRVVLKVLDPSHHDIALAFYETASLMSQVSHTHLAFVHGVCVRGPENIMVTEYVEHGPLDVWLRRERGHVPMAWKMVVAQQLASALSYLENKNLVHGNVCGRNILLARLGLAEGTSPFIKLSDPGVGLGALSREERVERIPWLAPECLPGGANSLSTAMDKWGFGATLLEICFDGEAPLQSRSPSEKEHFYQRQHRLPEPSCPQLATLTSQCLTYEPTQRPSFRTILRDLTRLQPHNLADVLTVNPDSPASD
Chain of JAK2 kinase domain (JH1) (O60674 849-1124): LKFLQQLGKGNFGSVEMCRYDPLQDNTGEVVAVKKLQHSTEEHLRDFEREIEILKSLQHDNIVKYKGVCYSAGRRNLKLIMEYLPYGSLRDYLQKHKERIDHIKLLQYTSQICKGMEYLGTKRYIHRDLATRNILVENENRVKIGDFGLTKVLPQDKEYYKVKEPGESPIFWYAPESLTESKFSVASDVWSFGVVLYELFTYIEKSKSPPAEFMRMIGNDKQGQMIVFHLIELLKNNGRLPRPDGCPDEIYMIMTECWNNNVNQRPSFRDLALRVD
Chain of Tyk2 kinase domain (DH1) (P29597 897-1176): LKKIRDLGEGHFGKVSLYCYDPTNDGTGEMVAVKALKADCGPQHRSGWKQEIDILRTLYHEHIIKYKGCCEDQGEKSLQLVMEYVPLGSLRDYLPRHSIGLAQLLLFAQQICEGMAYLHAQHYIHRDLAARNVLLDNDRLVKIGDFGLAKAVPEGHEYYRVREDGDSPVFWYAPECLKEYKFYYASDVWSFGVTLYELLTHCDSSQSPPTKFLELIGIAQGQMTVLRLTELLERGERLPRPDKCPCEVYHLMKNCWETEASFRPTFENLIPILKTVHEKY

Row | inhibition at 10 µM (JAK2 kinase domain (JH1); compound at 10 μM, ATP 10 μM) | inhibition at 10 µM (Tyk2 kinase domain (DH1); compound at 10 μM, ATP 10 μM) | Kd [1] | inhibition at 10 µM (JAK2 kinase domain (JH1); 10 μM compound, 10 μM ATP) | inhibition at 10 µM (Tyk2 kinase domain (DH1); 10 μM compound, 10 μM ATP) | Compound | JAK2 JH1% Inhibition @ 10 μM (JAK2 kinase domain (JH1); 10 μM compound, 10 μM ATP) | Tyk2 JH1% Inhibition @ 10 μM (Tyk2 kinase domain (DH1); 10 μM compound, 10 μM ATP)
1 | – | – | < 0.2 nM | < 50% | < 50% | CNc1cc(Nc2cccn(C(C)C)c2=O)nc2c(C(=O)N[C@H]3CC[C@H]3O)cnn12 [I-894] | – | –
2 | – | – | < 0.2 nM | < 50% | < 50% | CNc1cc(Nc2cccn([C@@H]3CCC[C@@H](O)C3)c2=O)nc2c(C(=O)N[C@H]3CC[C@@H]3OC)cnn12 [I-1064] | – | –
3 | < 50% | < 50% | 0.2 to 1 nM | – | – | CNc1cc(Nc2cccn(-c3ccccn3)c2=O)nc2c(C(=O)NCC(C)CO)cnn12 (stereo not drawn) [I-682] | – | –
4 | – | – | 0.2 to 1 nM | < 50% | < 50% | CNc1cc(Nc2cccn([C@H]3CCN(C)CC3(F)F)c2=O)nc2c(C(=O)NC3CC3)cnn12 [I-823] | – | –
5 | < 50% | < 50% | 0.2 to 1 nM | – | – | CNc1cc(-c2cn(C(C)C)c3ncccc23)nc2c(C(=O)NC3CC4(COC4)C3)cnn12 [I-629, 5-(1-isopropyl-1H-pyrrolo[2,3-b]pyridin-3-yl)-7-(methylamino)-N-(2-oxaspiro[3.3]heptan-6-yl)pyrazolo[1,5-a]pyrimidine-3-carboxamide] | – | –
6 | – | – | 0.2 to 1 nM | < 50% | < 50% | CNc1cc(Nc2cccnc2OC2CC2)nc2c(-c3cn(C(C)C)nn3)cnn12 [I-985, N5-(2-cyclopropoxypyridin-3-yl)-3-(1-isopropyl-1H-1,2,3-triazol-4-yl)-N7-methylpyrazolo[1,5-a]pyrimidine-5,7-diamine] | – | –
7 | < 50% | < 50% | < 0.2 nM | – | – | CNc1cc(Nc2cccn([C@@H]3CCCOC3)c2=O)nc2c(C(=O)N[C@H]3COC[C@H]3O)cnn12 [I-754] | – | –
8 | < 50% | < 50% | < 0.2 nM | – | – | CNc1cc(Nc2cc(F)cn([C@@H]3CCCOC3)c2=O)nc2c(C(=O)NC3CC3)cnn12 [I-533] | – | –
9 | < 50% | < 50% | < 0.2 nM | – | – | CNc1cc(Nc2cccn(-c3nc(C)co3)c2=O)nc2c(C(=O)N[C@@H]3CC[C@H]3O)cnn12 [I-768] | – | –
10 | – | – | < 0.2 nM | – | – | CNc1cc(Nc2cccn([C@H]3CC[C@H]3O)c2=O)nc2c(C(=O)NC3CC3)cnn12 [I-956] | A (percent inhibition at 10 μM lower than 50) | A (percent inhibition at 10 μM lower than 50)
11 | < 50% | < 50% | < 0.2 nM | – | – | CNc1cc(Nc2cccc(N3CCC4(CCCO4)CC3)n2)nc2c(C(=O)N[C@@H]3CC[C@@H]3O)cnn12 [I-657] | – | –
12 | – | – | < 0.2 nM | < 50% | < 50% | CNc1cc(Nc2cccn(-c3ncc(C)s3)c2=O)nc2c(C(=O)N[C@H]3CC[C@H]3O)cnn12 [I-1072] | – | –
13 | – | – | 0.2 to 1 nM | < 50% | < 50% | CNc1cc(-c2cn(CCN3CCOCC3)c3ncccc23)nc2c(C(=O)N[C@H]3COC[C@H]3O)cnn12 [I-856, N-((3S,4S)-4-hydroxytetrahydrofuran-3-yl)-7-(methylamino)-5-(1-(2-morpholinoethyl)-1H-pyrrolo[2,3-b]pyridin-3-yl)pyrazolo[1,5-a]pyrimidine-3-carboxamide] | – | –

Second part, the molecule before the results:

Row | Compound | inhibition at 10 µM (JAK2 kinase domain (JH1); compound at 10 μM, ATP 10 μM) | inhibition at 10 µM (Tyk2 kinase domain (DH1); compound at 10 μM, ATP 10 μM) | Kd [1] | inhibition at 10 µM (JAK2 kinase domain (JH1); 10 μM compound, 10 μM ATP) | inhibition at 10 µM (Tyk2 kinase domain (DH1); 10 μM compound, 10 μM ATP) | JAK2 JH1% Inhibition @ 10 μM (JAK2 kinase domain (JH1); 10 μM compound, 10 μM ATP) | Tyk2 JH1% Inhibition @ 10 μM (Tyk2 kinase domain (DH1); 10 μM compound, 10 μM ATP)
14 | CNc1cc(-c2nn(C3CCOC3)c3ncccc23)nc2c(C(=O)N[C@H]3C[C@H]3F)cnn12 (stereo partly drawn) [I-452] | < 50% | < 50% | < 0.2 nM | – | – | – | –
15 | CNc1cc(Nc2cccnc2OC(CO)CO)nc2c(C(=O)NC3CC3)cnn12 [I-199] | < 50% | < 50% | 0.2 to 1 nM | – | – | – | –
16 | CNc1cc(Nc2cc(Cl)cnc2OC(C)C)nc2c(C(N)=O)cnn12 [I-78] | < 50% | < 50% | < 0.2 nM | – | – | – | –
17 | CNc1cc(Nc2cccnc2OC2CCC2)nc2c(C(=O)NC3CC3)cnn12 [I-169] | < 50% | < 50% | 0.2 to 1 nM | – | – | – | –
18 | CNc1cc(Nc2cc(Cl)cnc2OC(C)C)nc2c(C(=O)N[C@H]3C[C@H]3F)cnn12 [I-148] | < 50% | < 50% | 0.2 to 1 nM | – | – | – | –
19 | CNc1cc(Nc2cccn([C@@H]3CCC[C@@H]3OC)c2=O)nc2c(C(=O)N[C@@H]3C[C@@H]3F)cnn12 [I-507] | < 50% | < 50% | 0.2 to 1 nM | – | – | – | –
20 | CNc1cc(Nc2cccnc2C(C)(C)O)nc2c(C(=O)NC3CC3)cnn12 [I-306] | < 50% | < 50% | 1 to 10 nM | – | – | – | –
21 | CNc1cc(Nc2cccn(C[C@H]3CCCCO3)c2=O)nc2c(C(=O)N[C@@H]3C[C@@H]3F)cnn12 [I-427] | < 50% | < 50% | 0.2 to 1 nM | – | – | – | –
22 | CNc1cc(Nc2cccn(-c3ccnn3C)c2=O)nc2c(C(=O)NC3CC3)cnn12 [I-327] | < 50% | < 50% | 0.2 to 1 nM | – | – | – | –
